Here are results for 2 compounds from patent US20260216344A1, “ALC1 Inhibitors and Synergy with PARPi” (Eisbach Bio GmbH, priority 2020, published 2026).

“Also recorded” adds a separate entry of the source.

In this assay the test system is PARP2. In words: live-cell PARP-2 trapping assay (GFP-PARP2 at laser micro-irradiation sites). In kind it is cell-based, human. Conditions: U2OS cells transfected with GFP-PARP2; veliparib 10 μM, talazoparib 100 nM; images 1 and 15 minutes after irradiation. On the procedure: U2OS cells were seeded onto 4-well Nunc Lab-Tek chambers (Thermo Fisher Scientific) in normal DMEM. Cells were cultured over night at 37° C. and transfected with a GFP-tagged PARP2 plasmid using Lipofectamine. 24 h after transfection, the cells were imaged using the Zeiss AxioObserver Z1 confocal spinning-disk microscope equipped with a sCMOS ORCA Flash 4.0 camera (Hamamatsu). Live-cell imaging experiments were performed with C-Apo 63× water immersion objective lens. During this time, the cells were maintained in Leibovitz's L-15 media (Gibco), supplemented with 10% FBS, at 37° C. in the absence of CO2. […] DNA damage was induced along a line of 88 pixels that is exposed for 400 msec with 20% laser power of a 355 nm laser operated through a single-point scanning head (UGA-42 firefly, Rapp OptoElectronics).
The accumulation of fluorophore-tagged proteins at laser micro-irradiation sites was followed for 15-30 minutes. […] The accumulation of fluorophore-tagged proteins at micro-irradiation sites was quantified using a custom-made macro in Fiji/ImageJ. The damage region of interest was selected, the mean fluorescent intensity of the nucleus was determined, and the background signal was subtracted. The recruitment was calculated via the following formula: (damage region (t)−background signal (t))/(nucleus intensity (t)−background (t))

Take `C[C@]1(c2nc3c(C(N)=O)cccc3[nH]2)CCCN1` [veliparib]: the “recruitment / retention of GFP-PARP2 at laser micro-irradiation damage sites” value is given as “overall less PARP2 recruitment to the DNA lesions; also recorded: less recruitment of PARP2 to the damage site”. For the compound `Cn1ncnc1[C@H]1c2n[nH]c(=O)c3cc(F)cc(c23)N[C@@H]1c1ccc(F)cc1` [talazoparib], the “recruitment / retention of GFP-PARP2 at laser micro-irradiation damage sites” value was “enhanced retention of GFP-tagged PARP2 at induced DNA lesions; also recorded: enhanced retention of PARP2 at induced damage sites”.
